Test results from patent US20170226139A1, “CRYSTALLINE SALTS OF (Z)-O-OCTADEC-9-EN-1-YL O,O-DIHYDROGEN PHOSPHOROTHIOATE” (priority 2013, published 2017).
Read-outs that look alike come from different tables or passages of the source.

Key:
Beagle dogs = assay: Single-dose subcutaneous toxicity in dogs; assay type: in vivo
Source text: One group of one male and one female Beagle dogs received single escalating subcutaneous doses of Rx100.Lysine at 10 and 1 (female)/1.52 (male) mg/kg. […] Parameters evaluated included clinical signs, body weight, and gross pathology. The male and female dog survived until scheduled necropsy on Day 15. Administration of Rx100 had no effect on body weight or general health of the animals. Noteworthy clinical observations were confined to skin and behavior effects. Both animals scratched at the dose site, likely contributing to observations of redness at the dose site. Swelling and a thickened/raised area were also observed during the observation period. Clinical observations were sufficient to warrant the injection of diphenhydramine. […] Following injection of the L-lysine component of the formulation at an independent site, redness, scratching, or swelling was not seen.

[1] = tested on: bone marrow cells (micronucleated PCEs); assay: In vivo rat bone marrow micronucleus assay; parameters: species or system Sprague-Dawley rats; conditions: 500 mg/kg single subcutaneous dose
[2] = tested on: male telemetered cynomolgus monkeys; assay: Cardiovascular safety pharmacology in telemetered monkeys; assay type: in vivo; conditions: SC 0.1, 0.5 and 2.0 mg/kg as the free acid
Description: Four male telemetered cynomolgus monkeys were selected, and assigned via a Latin Square design to receive four doses of Rx100.lysine or vehicle via subcutaneous injection at doses of 0 (10 mM histidine in sterile water for injection, USP), 0.1, 0.5 and 2.0 mg/kg as the free acid. Parameters evaluated include clinical observations, body temperature, arterial pressure and ECG evaluations (PR, QT, QRS durations). QTc values were calculated based on data collected for each animal.

[3] = tested on: S. typhimurium strains TA98, TA100, TA1535 and TA1537 and E. coli strain WP2uvrA; assay type: cell-based
Description: An Ames assay was conducted on Rx100.Lysine using S. typhimurium strains TA98, TA100, TA1535 and TA1537 and E. coli strain WP2uvrA. Two trials were performed. […] See Tables 38A and 38B, respectively. In the second trial, doses ranged from 0.160 to 16 μg/plate with some strains tested with activation and others without activation.

SMILES: CCCCCCCC/C=C\CCCCCCCCOP(O)(O)=S [Rx100.L-Lysine, (Z)—O-octadec-9-en-1-yl O,O-dihydrogen phosphorothioate]
- clinical observations at dose sites (Beagle dogs; 1 mg/kg dose): persistent scratching and swelling at dose sites
- macroscopic and microscopic findings at dose sites (Beagle dogs; 1 mg/kg dose): No remarkable findings
- tolerability of subcutaneous injection (Beagle dogs; Rx100 formulation, beagle dogs): not tolerated
- microscopic examination of injection site (Beagle dogs; injection site A (10 mg/kg), both animals): chronic-active inflammation with necrosis and vascular thrombus formation
- effect on body weight or general health (Beagle dogs; single escalating SC doses 10 and 1/1.52 mg/kg): no effect
- Mean % MNPC (±SD) Male ([1]; harvest 24 hour): 0.09%
- Mean Ratio PCE:NCE (±SD) Male ([1]; harvest 24 hour): 0.52
- Mean % MNPC (±SD) Male ([1]; harvest 48 hour): 0.08%
- ECG intervals [2]: no meaningful changes in PR, QRS, QT and QTc
- heart rate [2]: slight dose-dependent increase in heart rate
- Ames assay, overall result [3]: negative
- Genotoxic Effects ([3]; Bacterial Reverse Mutation Assay, plate incorporation 52 ± 4 hours): Genotoxic Effects: None
- Revertant Colony Counts (Mean ± SD) ([3]; TA98, with metabolic activation, 1.45 μg/plate): 17 ± 5 ^N
- Revertant Colony Counts (Mean ± SD) ([3]; TA98, with metabolic activation, 4.52 μg/plate): 19 ± 3 ^N
- Revertant Colony Counts (Mean ± SD) ([3]; TA98, with metabolic activation, 14.5 μg/plate): 16 ± 5 ^N
- Revertant Colony Counts (Mean ± SD) ([3]; TA98, with metabolic activation, 45.2 μg/plate): 20 ± 6 ^N
- Revertant Colony Counts (Mean ± SD) ([3]; TA98, with metabolic activation, 145 μg/plate): 0 ± 0 ^E
- Revertant Colony Counts (Mean ± SD) ([3]; TA98, with metabolic activation, 452 μg/plate): 0 ± 0 ^V
- Revertant Colony Counts (Mean ± SD) ([3]; TA98, with metabolic activation, 1450 μg/plate): 0 ± 0 ^A
- Revertant Colony Counts (Mean ± SD) ([3]; TA98, with metabolic activation, 4520 μg/plate): 0 ± 0 ^A
- Revertant Colony Counts (Mean ± SD) ([3]; TA100, with metabolic activation, 1.45 μg/plate): 114 ± 12 ^N
- Revertant Colony Counts (Mean ± SD) ([3]; TA100, with metabolic activation, 4.52 μg/plate): 117 ± 5 ^N
- Revertant Colony Counts (Mean ± SD) ([3]; TA100, with metabolic activation, 14.5 μg/plate): 89 ± 14 ^N
- Revertant Colony Counts (Mean ± SD) ([3]; TA100, with metabolic activation, 45.2 μg/plate): 26 ± 3 ^E
- Revertant Colony Counts (Mean ± SD) ([3]; TA100, with metabolic activation, 145 μg/plate): 39 ± 3 ^M R
- Revertant Colony Counts (Mean ± SD) ([3]; TA100, with metabolic activation, 452 μg/plate): 0 ± 0 ^A T
- Revertant Colony Counts (Mean ± SD) ([3]; TA100, with metabolic activation, 1450 μg/plate): 0 ± 0 ^M A T
- Revertant Colony Counts (Mean ± SD) ([3]; TA100, with metabolic activation, 4520 μg/plate): 0 ± 0 ^A T
- Revertant Colony Counts (Mean ± SD) ([3]; TA1535, with metabolic activation, 0.0181 μg/plate): 10 ± 4 ^N M
- Revertant Colony Counts (Mean ± SD) ([3]; TA1535, with metabolic activation, 0.0452 μg/plate): 11 ± 2 ^C M N
- Revertant Colony Counts (Mean ± SD) ([3]; TA1535, with metabolic activation, 0.145 μg/plate): 9 ± 3 ^N
- Revertant Colony Counts (Mean ± SD) ([3]; TA1535, with metabolic activation, 0.452 μg/plate): 13 ± 1 ^N
- Revertant Colony Counts (Mean ± SD) ([3]; TA1535, with metabolic activation, 1.45 μg/plate): 11 ± 5 ^N
- Revertant Colony Counts (Mean ± SD) ([3]; TA1535, with metabolic activation, 4.52 μg/plate): 9 ± 1 ^N
- Revertant Colony Counts (Mean ± SD) ([3]; TA1535, with metabolic activation, 14.5 μg/plate): 11 ± 3 ^N
- Revertant Colony Counts (Mean ± SD) ([3]; TA1537, with metabolic activation, 1.45 μg/plate): 9 ± 3 ^N
- Revertant Colony Counts (Mean ± SD) ([3]; TA1537, with metabolic activation, 4.52 μg/plate): 7 ± 2 ^N M
- Revertant Colony Counts (Mean ± SD) ([3]; TA1537, with metabolic activation, 14.5 μg/plate): 6 ± 5 ^M N
- Revertant Colony Counts (Mean ± SD) ([3]; TA1537, with metabolic activation, 45.2 μg/plate): 3 ± 2 ^E
- Revertant Colony Counts (Mean ± SD) ([3]; TA1537, with metabolic activation, 145 μg/plate): 0 ± 0 ^R
- Revertant Colony Counts (Mean ± SD) ([3]; TA1537, with metabolic activation, 452 μg/plate): 0 ± 0 ^V
- Revertant Colony Counts (Mean ± SD) ([3]; TA1537, with metabolic activation, 1450 μg/plate): 0 ± 0 ^V
- Revertant Colony Counts (Mean ± SD) ([3]; TA1537, with metabolic activation, 4520 μg/plate): 0 ± 0 ^A
- Revertant Colony Counts (Mean ± SD) ([3]; WP2uvrA, with metabolic activation, 1.45 μg/plate): 13 ± 4 ^N
- Revertant Colony Counts (Mean ± SD) ([3]; WP2uvrA, with metabolic activation, 4.52 μg/plate): 17 ± 4 ^M N
- Revertant Colony Counts (Mean ± SD) ([3]; WP2uvrA, with metabolic activation, 14.5 μg/plate): 19 ± 4 ^N
- Revertant Colony Counts (Mean ± SD) ([3]; WP2uvrA, with metabolic activation, 45.2 μg/plate): 12 ± 4 ^N
- Revertant Colony Counts (Mean ± SD) ([3]; WP2uvrA, with metabolic activation, 145 μg/plate): 15 ± 4 ^N M
- Revertant Colony Counts (Mean ± SD) ([3]; WP2uvrA, with metabolic activation, 452 μg/plate): 15 ± 5 ^N
- Revertant Colony Counts (Mean ± SD) ([3]; WP2uvrA, with metabolic activation, 1450 μg/plate): 9 ± 3 ^N
- Revertant Colony Counts (Mean ± SD) ([3]; WP2uvrA, with metabolic activation, 4520 μg/plate): 0 ± 0 ^E
- Revertant Colony Counts (Mean ± SD) ([3]; Without Metabolic Activation, TA98, 0.0181 μg/plate): 15 ± 3 ^N
- Revertant Colony Counts (Mean ± SD) ([3]; Without Metabolic Activation, TA98, 0.0452 μg/plate): 15 ± 5 ^N M
- Revertant Colony Counts (Mean ± SD) ([3]; Without Metabolic Activation, TA98, 0.145 μg/plate): 13 ± 2 ^N M
- Revertant Colony Counts (Mean ± SD) ([3]; Without Metabolic Activation, TA98, 0.452 μg/plate): 13 ± 5 ^N
- Revertant Colony Counts (Mean ± SD) ([3]; Without Metabolic Activation, TA98, 1.45 μg/plate): 14 ± 2 ^N
- Revertant Colony Counts (Mean ± SD) ([3]; Without Metabolic Activation, TA98, 4.52 μg/plate): 12 ± 4 ^N
- Revertant Colony Counts (Mean ± SD) ([3]; Without Metabolic Activation, TA98, 14.5 μg/plate): 12 ± 3 ^N
- Revertant Colony Counts (Mean ± SD) ([3]; Without Metabolic Activation, TA100, 0.0181 μg/plate): 92 ± 8 ^N
- Revertant Colony Counts (Mean ± SD) ([3]; Without Metabolic Activation, TA100, 0.0452 μg/plate): 93 ± 16 ^N
- Revertant Colony Counts (Mean ± SD) ([3]; Without Metabolic Activation, TA100, 0.145 μg/plate): 88 ± 11 ^N
- Revertant Colony Counts (Mean ± SD) ([3]; Without Metabolic Activation, TA100, 0.452 μg/plate): 86 ± 13 ^N
- Revertant Colony Counts (Mean ± SD) ([3]; Without Metabolic Activation, TA100, 1.45 μg/plate): 84 ± 16 ^N
- Revertant Colony Counts (Mean ± SD) ([3]; Without Metabolic Activation, TA100, 4.52 μg/plate): 53 ± 7 ^R
- Revertant Colony Counts (Mean ± SD) ([3]; Without Metabolic Activation, TA100, 14.5 μg/plate): 51 ± 4 ^M R
- Revertant Colony Counts (Mean ± SD) ([3]; Without Metabolic Activation, TA1535, 0.0181 μg/plate): 15 ± 4 ^N
- Revertant Colony Counts (Mean ± SD) ([3]; Without Metabolic Activation, TA1535, 0.0452 μg/plate): 16 ± 2 ^N
- Revertant Colony Counts (Mean ± SD) ([3]; Without Metabolic Activation, TA1535, 0.145 μg/plate): 12 ± 1 ^N
- Revertant Colony Counts (Mean ± SD) ([3]; Without Metabolic Activation, TA1535, 0.452 μg/plate): 11 ± 3 ^N
- Revertant Colony Counts (Mean ± SD) ([3]; Without Metabolic Activation, TA1535, 1.45 μg/plate): 11 ± 2 ^N
- Revertant Colony Counts (Mean ± SD) ([3]; Without Metabolic Activation, TA1535, 4.52 μg/plate): 8 ± 3 ^N
- Revertant Colony Counts (Mean ± SD) ([3]; Without Metabolic Activation, TA1535, 14.5 μg/plate): 4 ± 1 ^R M
- Revertant Colony Counts (Mean ± SD) ([3]; Without Metabolic Activation, TA1537, 0.0181 μg/plate): 6 ± 4 ^N
- Revertant Colony Counts (Mean ± SD) ([3]; Without Metabolic Activation, TA1537, 0.0452 μg/plate): 6 ± 3 ^N M
- Revertant Colony Counts (Mean ± SD) ([3]; Without Metabolic Activation, TA1537, 0.145 μg/plate): 5 ± 0 ^M N
- Revertant Colony Counts (Mean ± SD) ([3]; Without Metabolic Activation, TA1537, 0.452 μg/plate): 6 ± 3 ^M N
- Revertant Colony Counts (Mean ± SD) ([3]; Without Metabolic Activation, TA1537, 1.45 μg/plate): 5 ± 2 ^N
- Revertant Colony Counts (Mean ± SD) ([3]; Without Metabolic Activation, TA1537, 4.52 μg/plate): 3 ± 4 ^N
- Revertant Colony Counts (Mean ± SD) ([3]; Without Metabolic Activation, TA1537, 14.5 μg/plate): 1 ± 1 ^R M
- Revertant Colony Counts (Mean ± SD) ([3]; Without Metabolic Activation, WP2uvrA, 1.45 μg/plate): 12 ± 5 ^N
- Revertant Colony Counts (Mean ± SD) ([3]; Without Metabolic Activation, WP2uvrA, 4.52 μg/plate): 13 ± 3 ^M N
- Revertant Colony Counts (Mean ± SD) ([3]; Without Metabolic Activation, WP2uvrA, 14.5 μg/plate): 17 ± 6 ^N
- Revertant Colony Counts (Mean ± SD) ([3]; Without Metabolic Activation, WP2uvrA, 45.2 μg/plate): 14 ± 4 ^N
- Revertant Colony Counts (Mean ± SD) ([3]; Without Metabolic Activation, WP2uvrA, 145 μg/plate): 15 ± 3 ^N
- Revertant Colony Counts (Mean ± SD) ([3]; Without Metabolic Activation, WP2uvrA, 452 μg/plate): 12 ± 2 ^N
- Revertant Colony Counts (Mean ± SD) ([3]; Without Metabolic Activation, WP2uvrA, 1450 μg/plate): 8 ± 3 ^E
- Revertant Colony Counts (Mean ± SD) ([3]; Without Metabolic Activation, WP2uvrA, 4520 μg/plate): 0 ± 0 ^E
- revertant colonies ([3]; any strain, any concentration (1.6 to 5000 μg/plate; 0.160 to 16 μg/plate), with or without metabolic activation): No increase in revertant colonies
